Reference: ChEMBL document CHEMBL3507680, “University of Dundee, Gates Library screen for HepG2 cell viability”

Assay: Human HepG2 cell viability assay in 384 well format
Assay type: toxicity, cell-based
Parameters: dose 125 nL, time 70.5 hour; concentration not given beside the values
Settings: HepG2 cells, read-out: Inhibition

Compound | cytotoxicity at 70.5 h [%]
CC(C)CC(NC(=O)CSCC(N)=O)c1cccs1 (stereo unspecified) | -5.44
Clc1cccc(-c2cccc(N3CCC(NC4CCOCC4)CC3)c2)c1 | 5.92
CC1(C)CC(N(Cc2ccccc2)Cc2ncc[nH]2)CC(C)(C)N1 | -1.78
CNC(=O)[C@H]1CO[C@H]2CCN(Cc3ccc4ccccc4n3)C[C@H]2C1 | -0.28
O=C1CN(Cc2cn(CC3CCN(C4CCSCC4)CC3)nn2)CCN1 | 20.3
CC(C)CCn1cc(C(C(=O)O)N2CCCN(C3CCCC3)CC2)cn1 (stereo unspecified) | -9.63
Cc1cc(C(=O)Nc2ccc3oc(=O)n(CCN(C)C)c3c2)c(C)o1 | 9.45
CN1CC2(CCN(C(=O)c3cn4cccnc4n3)CC2)CC1=O | 39.7
CCCN1CCC(CC(=O)NCc2cc(C)nn2C)CC1 | -7.34
NC(=O)C1CCN(CC(=O)N2CCCC2c2ccsc2)CC1 (stereo unspecified) | -4.16
COC(=O)[C@H]1CN(C(C)=O)CCN1C(C)=O | -2.71
O=C(CC1CC1)N1CCC2(COCc3cnc(N4CCOCC4)nc32)C1 (stereo unspecified) | -6.88
CN(C)CCNC(=O)c1cc(-c2cnc(N3CCCC3)nc2)cn1C | 21.5
CC(C)C(=O)N1CCC(c2c(C(N)=O)sc3ccccc23)C1 (stereo unspecified) | 18.5
CC1COCCN1Cc1nc(Cc2ccccc2)no1 (stereo unspecified) | -8.66
Cc1nc(C)c(CN2CCOC[C@H](Oc3ccc(S(C)(=O)=O)cc3)C2)s1 | 0.478
N#CCCN(CCC#N)C(=O)c1ccc(OCC2CC2)cc1 | -7.55
CNc1nc(C2CCN(C(=O)CC3CCCC3)C2)nc2c1CN(C)CC2 (stereo unspecified) | 8.17
COC(C(=O)NC1CCN(S(C)(=O)=O)CC1)c1ccccc1 (stereo unspecified) | 15.6
c1cc(CN2CCCC(c3nnc(-c4cnccn4)o3)C2)ccn1 (stereo unspecified) | -8.48
CN1CCC(C(=O)NCc2nncn2-c2ccccc2)CC1=O (stereo unspecified) | -16.9
CCC1=N[C@@]2(CC[C@@H]3CN(S(=O)(=O)CC(C)C)C[C@@H]32)C(=O)N1C | -1.14
COc1cccc(-c2noc(C3CCN(Cc4ccncc4)C3)n2)c1 (stereo unspecified) | -3.26

Compound | cytotoxicity at 70.5 h [%]
CCN1CC2(CC1=O)CN(C(=O)c1ccoc1)CCN(C(=O)N(C)C)C2 (stereo unspecified) | 3.23
CS(=O)(=O)N1CCOCC2(CCN(C(=O)c3cnccn3)CC2)C1 | 17.6
Cc1ccc(N2CCCC3(CCN(C(=O)CC(F)(F)F)C3)C2)nn1 (stereo unspecified) | -10.2
COc1ccnc(N2CCN(C(=O)Cc3ccc(C)s3)CC2)n1 | -5.58
COc1cccc(C(=O)N2CCN(C(=O)CCCc3cn[nH]c3)CC2)c1 | -2.77
O=C(O)c1cc2c(nc1-c1ccncc1)CCN(C1CCOC1)CC2 (stereo unspecified) | -4.07
CNc1cc(C)nc(C2COCCN2CCc2ccc(F)cc2)n1 (stereo unspecified) | -4.38
COc1ccnc(N(C)Cc2ccccc2OC(F)(F)F)n1 | -1.49
O=C(c1cc(-n2cnnn2)ccc1Cl)N1CCOCC1 | -21.4
CCOC(=O)CNC(=O)NCc1cccn1Cc1ccccc1F | -2.5
CC(C)N1CCC(Cc2cc(-c3ccccc3C(=O)O)ncn2)CC1 | 16.5
CN(C)C(C(=O)N1CCN(CC(F)(F)F)CC1)c1ccccc1F (stereo unspecified) | -1.96
Cc1cncc(C(=O)N2C[C@H]3CCC[C@@]3(COc3ccccn3)C2)c1 | 7.93
Cc1nnsc1C(=O)N1CCN(CC2CC2)[C@@H]2CS(=O)(=O)C[C@@H]21 | -13.8
CN1CCN(Cc2ccc(-c3ccc(-c4ccn[nH]4)cc3)nc2)CC1 | 0.0371
Cc1cc2nc(C(C)C)cc(N(C)CC3CCCN3C)n2n1 (stereo unspecified) | -10.7
CC(=O)NCCC(=O)Nc1cccc(N2CCN(CC3CC3)CC2)c1 | -0.54
NC(=O)C1CCCCN1C(=O)c1ccc(Br)s1 (stereo unspecified) | -5.06
COCc1cc(N2CCN(Cc3ccncc3)CC2)n2nccc2n1 | -1.74
O=C(CCCn1cccn1)N1C[C@@H](O)[C@H](Oc2cccc(F)c2)C1 | 3.04
COCc1nn(CC2CC2)c2c1CN(Cc1cccs1)CC2 | -8.23
CCc1ccc(C(=O)N2CCCC3(CCCC(=O)N3C)C2)cc1 (stereo unspecified) | -10.6
Cc1ccc(C(=O)N(Cc2cccc(F)c2)C2CC2)c(=O)[nH]1 | -2.11

Compound | cytotoxicity at 70.5 h [%]
CS(=O)(=O)Cc1ccc(CNC(=O)N2CCC(C(N)=O)C2)cc1 (stereo unspecified) | -1.33
Cn1ccnc1CN1C[C@H]2CN(S(C)(=O)=O)CCN2C1=O | -0.342
Cc1cc(N2CCOC(C)(C(=O)N(C)C)C2)ncn1 (stereo unspecified) | -6.62
Cc1cc(NCCSc2nccn2C)n2nc(C)c(C)c2n1 | -4.55
COCCN1CCC2(CC1)CC(c1cccnc1)C(=O)N2C (stereo unspecified) | 1.48
CCNC(=O)NCC1(CN2CCOCC2)CCCCC1 | 0.842
Cc1nn(C)c(N2CCOCC2)c1CNCc1ccoc1C | -11.3
Cc1c(-c2nc3cc(S(=O)(=O)N4CCCC4)ccc3n2C)cnn1C | -22.4
CC(C)C1CCCN1CCCc1nc(-c2cccs2)no1 (stereo unspecified) | 2.81
NC1(c2nc(-c3cccs3)cc(=O)[nH]2)CCCCC1 | 7.44
CC(C)n1cnc2c1C(C(=O)N1CCOCC1)N(CC1CC1)CC2 (stereo unspecified) | -15.8
O=S(=O)(c1ccccc1)N1CCC[C@]2(C[C@@H](OCC3CC3)CO2)C1 | 9.43
CCCn1nnc(NCc2ccccc2OCc2ccc(Cl)cc2)n1 | -7.74
CC(C)(C)c1nnc(CNc2cc(F)ccc2OCC2CCCO2)o1 (stereo unspecified) | 32.8
Cn1cccc1C(=O)N1C[C@H]2CN(Cc3cccc(F)c3)C[C@H]2C1 | -6.11
CC1CN(C(=O)c2cscn2)c2ccccc2S1 (stereo unspecified) | 21
Cc1cnc(C(=O)N(C)Cc2nc(-c3ccccn3)no2)cn1 | 1.35
Cn1cccc1C(=O)N1CCCC2(CCCN2Cc2cccnc2)C1 (stereo unspecified) | -5.57
COc1ccccc1CN1C[C@@H]2COC[C@]2(COCc2ccncc2)C1 | -10.2
CN1CCC(N(Cc2ccccc2)C(=O)c2ccn3cncc3c2)CC1 | 3.64
CCCOCC(=O)NS(=O)(=O)c1ccc2c(c1)OCCCO2 | 19.6
CCOc1ccc(C#N)cc1NC(=O)N1CCOC(C(N)=O)C1 (stereo unspecified) | 23
Cc1csc2ncnc(N3CCCC(Cn4cc(C(C)(C)O)nn4)C3)c12 (stereo unspecified) | -6.36

Compound | cytotoxicity at 70.5 h [%]
Cn1cnc2c1CCN(c1ccnc(-c3ccccc3)n1)C2 | -18.3
CSc1ccc(C(=O)C2CCCN(C(=O)CCn3cnnn3)C2)cc1 (stereo unspecified) | 14.5
COCC(=O)N1CCCC2(COCCN(CCN(C)C)C2)C1 (stereo unspecified) | 8.27
CN(C)C[C@@H]1[C@H]2CN(C(=O)c3cc(=O)[nH]c4ccc(F)cc34)C[C@@H]12 | 22.8
CN1CC=C(c2noc(CCC(=O)N3CCc4ccccc43)n2)CC1 | -26.2
CC(NCc1ccc(OCC(N)=O)cc1)c1ccc2c(c1)CCCC2 (stereo unspecified) | -4.04
CN(Cc1cccc2cccnc12)C1CCS(=O)(=O)C1 (stereo unspecified) | 24.2
Cc1cc(C)n(-c2ccc(C(=O)NCC(c3cccs3)N(C)C)cc2)n1 (stereo unspecified) | -4.5
CCCOCC(=O)N1CCC2(CC1)c1nc[nH]c1CCN2S(C)(=O)=O | -5.48
CCOCC(O)CN1CCN(C(=O)Cc2ccc(C)nc2)CC1 (stereo unspecified) | -0.471
CC(CCNC(=O)N1CCC1)N(C)C(=O)OC(C)(C)C (stereo unspecified) | -0.749
CCCc1nnc(NC(=O)NC(CCO)c2cccs2)s1 (stereo unspecified) | -3.88
Cc1nc(CC2CCCN(Cc3nc4ccccc4c(=O)[nH]3)C2)no1 (stereo unspecified) | -7.59
O=C(Cc1ccccc1)N1CCC2(CC1)CC(Nc1cnccn1)CO2 (stereo unspecified) | -8.13
Cc1nn(C)c(C)c1-c1cnc(C2CCCN(S(C)(=O)=O)C2)cn1 (stereo unspecified) | -9.63
COc1cc(-c2nccn2C(C)CCn2cccn2)cc2c1OCO2 (stereo unspecified) | 1.97
Cc1c2ncn(CC(=O)c3ccccc3)c(=O)c2nn1C | -3.76
CN(C)CC(=O)N1Cc2ncn(C)c2C(COCC2CCOCC2)C1 (stereo unspecified) | -6.48
CC(C)COCCC(=O)Nc1ccc2oc(=O)n(CCN(C)C)c2c1 | 17.6
CCn1cnnc1CNC(=O)N1CCN(c2cccc(C)c2)CC1 | -7.02
CCN(Cc1ccccc1)C(=O)CN1CCCC(Cn2cncn2)C1 (stereo unspecified) | -4.31
O=C(c1ccco1)N1CCc2onc(Cn3cccn3)c2C1 | -7.44
O=C(CCc1cccnc1)N1CCCC(n2cncn2)C1 (stereo unspecified) | -2.85

Compound | cytotoxicity at 70.5 h [%]
COc1cccc(C(NCc2ccc(SC)cc2)c2nccn2C)c1 (stereo unspecified) | 3.42
CC(C)(C)C(=O)NCCC(=O)NCCc1ccn(-c2ccccc2)n1 | -4.33
CC(=O)N(C)CC(=O)NC1(c2ccc(Cl)c(Cl)c2)CC1 | -10
CC(C)=CCN1C(=O)[C@H]2CC[C@@H]1CN(C(=O)CCc1n[nH]c(C)c1C)C2 | 11.2
CC(C)NC(=O)[C@@H]1C[C@H]2OCC[C@H]2N(Cc2ccc3ccccc3n2)C1 | 12.8
O=C(Nc1ccc(N2CCOCC2)nc1)N1CCc2sccc2C1 | 46.1
Cc1ccccc1OCC(=O)N1CCOC2(CNCCOC2)C1 (stereo unspecified) | -5.6
Cc1ccc(-c2nc(CN3CCc4c(ncn4C)C3)cs2)o1 | 36.9
NC(=O)COc1cccc(CN2CCc3cncnc3C2)c1 | -0.423
Cc1nn(C)c2ncc(NC(=O)N3CCCCCC3)cc12 | -4.95
NC(=O)CN1CCCN(C(=O)COc2cccc(F)c2)CC1 | -25.4
CCN1CC2(CCN(C(=O)C(C)Oc3ccc(F)cc3Cl)CC2)CC1=O (stereo unspecified) | 25
CS(=O)(=O)c1cn[nH]c1C1CCCN(C(=O)Cn2cccn2)C1 (stereo unspecified) | -9.34
O=C(c1cccs1)N1CCCn2cnc(COCC3CC3)c2C1 | -12.8
CCn1nc2ccc(S(=O)(=O)N3CCSCC3)cn2c1=O | -9.47
CC(C)(C)OC(=O)N1CCCN(Cc2ccon2)c2ccccc21 | 9.4
CN(Cc1csc(-c2cccs2)n1)C(=O)CCn1ccccc1=O | -17.2
Cc1noc(C)c1CN1CCc2ncc(CN(C)C)n2CC1 | -8.78
O=C(c1cncs1)N1CCC(Cc2cnc3[nH]ccc3c2)CC1 | 15.3
